Patent US20240391936A1, “TETRAHYDROTHIENO PYRIDINE DERIVATIVES AS DDRS INHIBITORS” (CHIESI FARMACEUTICI S.P.A., priority 2021, published 2024)

Experiments:
[1] = molecular target: T1, DDR1 (Homo sapiens, UniProt Q08345); test: DDR1 binding assay (LanthaScreen Europium Kinase Binding assay); design: purchased Carna Biosciences; conditions: binding assay, 5 nM DDR1, 20 nM Kinase Tracer 178; Ki from IC50 by Cheng-Prusoff; read-out: Ki DDR1
Outline: (§1)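 Compounds incubated 1 h at room temperature with 5 nM kinase, Kinase Tracer 178 (20 nM for DDR1, 10 nM for DDR2) and 2 nM Eu-anti-GST antibody in pH 7.5 HEPES/MgCl2/EGTA/BRIJ35 buffer. TR-FRET 665/615 nm ratio read after 340 nm excitation; IC50 from 4-parameter fit, converted to Ki by Cheng-Prusoff.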

[2] = molecular target: T2, DDR2 (Homo sapiens, UniProt Q16832); test: DDR2 binding assay (LanthaScreen Europium Kinase Binding assay); design: purchased Life Technologies; conditions: binding assay, 5 nM DDR2, 10 nM Kinase Tracer 178; Ki from IC50 by Cheng-Prusoff; read-out: Ki DDR2
T2 sequence (Q16832 22-855): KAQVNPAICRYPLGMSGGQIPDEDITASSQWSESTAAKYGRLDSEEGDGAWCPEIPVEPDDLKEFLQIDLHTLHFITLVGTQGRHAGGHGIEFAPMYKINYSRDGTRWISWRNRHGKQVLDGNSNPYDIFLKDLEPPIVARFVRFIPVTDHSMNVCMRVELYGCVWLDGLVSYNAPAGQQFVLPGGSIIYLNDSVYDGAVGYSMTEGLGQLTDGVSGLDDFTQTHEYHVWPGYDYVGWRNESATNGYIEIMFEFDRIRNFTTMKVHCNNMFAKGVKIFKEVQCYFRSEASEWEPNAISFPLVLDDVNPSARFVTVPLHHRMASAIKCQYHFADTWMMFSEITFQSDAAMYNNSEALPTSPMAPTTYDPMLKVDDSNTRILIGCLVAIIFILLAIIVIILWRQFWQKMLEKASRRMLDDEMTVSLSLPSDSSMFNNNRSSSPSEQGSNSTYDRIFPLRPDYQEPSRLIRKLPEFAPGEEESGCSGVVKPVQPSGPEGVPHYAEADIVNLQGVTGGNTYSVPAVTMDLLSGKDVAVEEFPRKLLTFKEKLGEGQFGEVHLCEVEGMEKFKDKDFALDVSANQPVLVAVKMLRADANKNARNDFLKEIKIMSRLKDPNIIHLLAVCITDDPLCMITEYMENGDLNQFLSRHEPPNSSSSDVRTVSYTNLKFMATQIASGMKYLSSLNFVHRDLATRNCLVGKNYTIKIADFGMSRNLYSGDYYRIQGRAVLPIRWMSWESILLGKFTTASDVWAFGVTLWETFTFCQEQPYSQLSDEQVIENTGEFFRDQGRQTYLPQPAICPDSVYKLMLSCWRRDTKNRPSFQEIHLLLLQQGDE
Outline: as §1

[3] = molecular target: T1, DDR1; test: DDR1 cell based assay (PathHunter U2OS DDR1 assay); design: host or cells: U2OS-DDR1 (PathHunter); conditions: U2OS-DDR1 cells, bovine Type II Collagen 20 μg/ml
Outline: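 U2OS-DDR1 PathHunter cells preincubated 30 min with compound, then stimulated overnight at 37 °C with 20 μg/ml bovine type II collagen. Luminescent complementation signal read after 1 h detection at room temperature; normalized to vehicle (0%) and collagen-only (100%) controls, IC50 from variable-slope sigmoidal fit.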

T1 sequence (Q08345 19-913): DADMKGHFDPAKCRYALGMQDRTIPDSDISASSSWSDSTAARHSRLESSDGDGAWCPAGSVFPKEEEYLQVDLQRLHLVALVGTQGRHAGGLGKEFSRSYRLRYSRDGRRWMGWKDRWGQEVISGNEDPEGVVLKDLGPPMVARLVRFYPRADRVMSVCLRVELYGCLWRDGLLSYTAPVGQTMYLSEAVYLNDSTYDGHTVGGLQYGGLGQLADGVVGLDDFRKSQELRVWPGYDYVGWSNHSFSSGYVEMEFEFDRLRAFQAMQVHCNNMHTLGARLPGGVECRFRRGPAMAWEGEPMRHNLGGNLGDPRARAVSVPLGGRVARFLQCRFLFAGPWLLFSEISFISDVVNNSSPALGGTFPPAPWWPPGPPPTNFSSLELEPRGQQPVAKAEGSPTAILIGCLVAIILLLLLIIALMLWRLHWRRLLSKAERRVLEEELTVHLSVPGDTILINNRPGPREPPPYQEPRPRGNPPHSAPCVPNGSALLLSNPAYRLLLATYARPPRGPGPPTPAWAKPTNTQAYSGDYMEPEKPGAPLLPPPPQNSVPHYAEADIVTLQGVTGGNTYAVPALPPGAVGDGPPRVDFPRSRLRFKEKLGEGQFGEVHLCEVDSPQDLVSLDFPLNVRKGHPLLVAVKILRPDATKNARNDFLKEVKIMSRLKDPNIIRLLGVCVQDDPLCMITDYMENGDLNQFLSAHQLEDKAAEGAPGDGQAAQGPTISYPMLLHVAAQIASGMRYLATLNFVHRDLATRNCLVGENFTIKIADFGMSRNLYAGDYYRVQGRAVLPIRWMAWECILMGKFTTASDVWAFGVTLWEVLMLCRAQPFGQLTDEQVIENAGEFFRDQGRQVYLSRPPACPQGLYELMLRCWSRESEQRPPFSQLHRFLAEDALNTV

Row | SMILES | Ki [1] [µM] | Ki [2] [µM] | IC50 [3] [µM]
1 | O=C(Nc1cc(CN2CCCCC2)cc(C(F)(F)F)c1)c1csc2c1CCN(C(=O)c1cnc3ccccn13)C2 [Example 60, 6-(imidazo[1,2-a]pyridine-3-carbonyl)-N-(3-(piperidin-1-ylmethyl)-5-(trifluoromethyl)phenyl)-4,5,6,7-tetrahydrothieno[2,3-c]pyridine-3-carboxamide] | < 0.025 | < 0.025 | 0.05 to 0.08
2 | COCCN(C)Cc1cc(NC(=O)c2csc3c2CCN(C(=O)c2cnc4ccccn24)C3)cc(C(F)(F)F)c1 [Example 61, 6-(imidazo[1,2-a]pyridine-3-carbonyl)-N-(3-(((2-methoxyethyl)(methyl)amino)methyl)-5-(trifluoromethyl)phenyl)-4,5,6,7-tetrahydrothieno[2,3-c]pyridine-3-carboxamide] | < 0.025 | < 0.025 | 0.025 to 0.05
3 | CN1CCN(CCOc2cc(NC(=O)c3csc4c3CCN(C(=O)c3cnc5ccccn35)C4)cc(C(F)(F)F)c2)CC1 [Example 62, 6-(imidazo[1,2-a]pyridine-3-carbonyl)-N-(3-(2-(4-methylpiperazin-1-yl)ethoxy)-5-(trifluoromethyl)phenyl)-4,5,6,7-tetrahydrothieno[2,3-c]pyridine-3-carboxamide] | < 0.025 | < 0.025 | 0.025 to 0.05
4 | CN1CCC(Oc2cc(NC(=O)c3csc4c3CCN(C(=O)c3cnc5ccccn35)C4)cc(C(F)(F)F)c2)C1 (stereo not drawn) [Example 63, 6-(imidazo[1,2-a]pyridine-3-carbonyl)-N-[3-(1-methylpyrrolidin-3-yl)oxy-5-(trifluoromethyl)phenyl]-5,7-dihydro-4H-thieno[2,3-c]pyridine-3-carboxamide] | < 0.025 | < 0.025 | 0.05 to 0.08
5 | CC(C)(C)c1cc(NC(=O)c2csc3c2CCN(C(=O)c2cnc4ccccn24)C3)n(CCO)n1 [Example 64, N-(3-(tert-butyl)-1-(2-hydroxyethyl)-1H-pyrazol-5-yl)-6-(imidazo[1,2-a]pyridine-3-carbonyl)-4,5,6,7-tetrahydrothieno[2,3-c]pyridine-3-carboxamide] | < 0.025 | < 0.025 | 0.025 to 0.05
6 | Cc1cn(-c2cc(NC(=O)c3csc4c3CCN(Cc3cnc5ccccn35)C4)cc(C(F)(F)F)c2)cn1 [Example 65, 6-(imidazo[1,2-a]pyridin-3-ylmethyl)-N-(3-(4-methyl-11H-imidazol-1-yl)-5-(trifluoromethyl)phenyl)-4,5,6,7-tetrahydrothieno[2,3-c]pyridine-3-carboxamide] | < 0.025 | < 0.025 | 0.05 to 0.08
7 | O=C(Nc1cccc(C(F)(F)F)c1)c1csc2c1CCN(C(=O)c1cnc3[nH]ccc3c1)C2 [Example 68, 6-(1H-pyrrolo[2,3-b]pyridine-5-carbonyl)-N-(3-(trifluoromethyl)phenyl)-4,5,6,7-tetrahydrothieno[2,3-c]pyridine-3-carboxamide] | < 0.025 | < 0.025 | 0.025 to 0.05
8 | Cc1ccc(-n2nc(C(C)(C)C)cc2NC(=O)c2csc3c2CCN(Cc2ccnc4[nH]ccc24)C3)cc1 [Example 76, 6-((1H-pyrrolo[2,3-b]pyridin-4-yl)methyl)-N-(3-(tert-butyl)-1-(p-tolyl)-1H-pyrazol-5-yl)-4,5,6,7-tetrahydrothieno[2,3-c]pyridine-3-carboxamide] | < 0.025 | 0.025 to 0.05 | 0.05 to 0.08
9 | Cn1nc(C(C)(C)C)cc1NC(=O)c1csc2c1CCN(Cc1cnc3[nH]ncc3c1)C2 [Example 77, 6-((1H-pyrazolo[3,4-b]pyridin-5-yl)methyl)-N-(3-(tert-butyl)-1-methyl-1H-pyrazol-5-yl)-4,5,6,7-tetrahydrothieno[2,3-c]pyridine-3-carboxamide] | < 0.025 | < 0.025 | < 0.025
10 | Cc1ccn2c(C(=O)N3CCc4c(C(=O)Nc5cc(C(C)(C)C)nn5C)csc4C3)cnc2c1 [Example 79, N-(5-tert-butyl-2-methyl-pyrazol-3-yl)-6-(7-methylimidazo[1,2-a]pyridine-3-carbonyl)-5,7-dihydro-4H-thieno[2,3-c]pyridine-3-carboxamide] | < 0.025 | < 0.025 | 0.025 to 0.05
11 | Cc1ccc2ncc(C(=O)N3CCc4c(C(=O)Nc5cc(C(C)(C)C)nn5C)csc4C3)n2c1 [Example 80, N-(3-(tert-butyl)-1-methyl-1H-pyrazol-5-yl)-6-(6-methylimidazo[1,2-a]pyridine-3-carbonyl)-4,5,6,7-tetrahydrothieno[2,3-c]pyridine-3-carboxamide] | < 0.025 | < 0.025 | 0.025 to 0.05
12 | Cn1nc(C(C)(C)C)cc1NC(=O)c1csc2c1CCN(C(=O)c1cnc3ccc(F)cn13)C2 [Example 81, N-(3-(tert-butyl)-1-methyl-1H-pyrazol-5-yl)-6-(6-fluoroimidazo[1,2-a]pyridine-3-carbonyl)-4,5,6,7-tetrahydrothieno[2,3-c]pyridine-3-carboxamide] | < 0.025 | < 0.025 | 0.05 to 0.08
13 | Cn1nc(C(C)(C)C)cc1NC(=O)c1csc2c1CCN(C(=O)c1cnc3ccc(C(F)(F)F)cn13)C2 [Example 82, N-(3-(tert-butyl)-1-methyl-1H-pyrazol-5-yl)-6-(6-(trifluoromethyl)imidazo[1,2-a]pyridine-3-carbonyl)-4,5,6,7-tetrahydrothieno[2,3-c]pyridine-3-carboxamide] | < 0.025 | < 0.025 | 0.025 to 0.05
14 | Cn1nc(C(C)(C)C)cc1NC(=O)c1csc2c1CCN(C(=O)c1cnc3ccc(Cl)cn13)C2 [Example 83, N-(3-(tert-butyl)-1-methyl-1H-pyrazol-5-yl)-6-(6-chloroimidazo[1,2-a]pyridine-3-carbonyl)-4,5,6,7-tetrahydrothieno[2,3-c]pyridine-3-carboxamide] | < 0.025 | < 0.025 | 0.025 to 0.05
15 | O=C(Nc1cccc(C(F)(F)F)c1)c1csc2c1CCN(Cc1cnc3cccnn13)C2 [Example 87, 6-(imidazo[1,2-b]pyridazin-3-ylmethyl)-N-(3-(trifluoromethyl)phenyl)-4,5,6,7-tetrahydrothieno[2,3-c]pyridine-3-carboxamide] | < 0.025 | < 0.025 | 0.05 to 0.08
16 | O=C(Nc1cccc(C(F)(F)F)c1)c1csc2c1CCN(Cc1cnc3ccnn3c1)C2 [Example 88, 6-(pyrazolo[1,5-a]pyrimidin-6-ylmethyl)-N-(3-(trifluoromethyl)phenyl)-4,5,6,7-tetrahydrothieno[2,3-c]pyridine-3-carboxamide] | < 0.025 | < 0.025 | < 0.025
17 | O=C(Nc1cccc(C(F)(F)F)c1)c1csc2c1CCN(Cc1cnn3cccnc13)C2 [Example 89, 6-(pyrazolo[1,5-a]pyrimidin-3-ylmethyl)-N-(3-(trifluoromethyl)phenyl)-4,5,6,7-tetrahydrothieno[2,3-c]pyridine-3-carboxamide] | < 0.025 | < 0.025 | < 0.025
18 | O=C(Nc1cccc(C(F)(F)F)c1)c1csc2c1CCN(C(=O)c1cnc3[nH]ncc3c1)C2 [Example 91, 6-(1H-pyrazolo[3,4-b]pyridine-5-carbonyl)-N-(3-(trifluoromethyl)phenyl)-4,5,6,7-tetrahydrothieno[2,3-c]pyridine-3-carboxamide] | < 0.025 | < 0.025 | < 0.025
19 | O=C(Nc1cccc(C(F)(F)F)c1)c1csc2c1CCN(C(=O)c1cnc3cccnn13)C2 [Example 92, 6-(imidazo[1,2-b]pyridazine-3-carbonyl)-N-(3-(trifluoromethyl)phenyl)-4,5,6,7-tetrahydrothieno[2,3-c]pyridine-3-carboxamide] | < 0.025 | < 0.025 | < 0.025
20 | O=C(Nc1cccc(C(F)(F)F)c1)c1csc2c1CCN(C(=O)c1cnn3cccnc13)C2 [Example 94, 6-(pyrazolo[1,5-a]pyrimidine-3-carbonyl)-N-(3-(trifluoromethyl)phenyl)-4,5,6,7-tetrahydrothieno[2,3-c]pyridine-3-carboxamide] | < 0.025 | < 0.025 | 0.05 to 0.08
